{"source": "patent US7572454B2", "about": "“T helper cell epitopes” (priority 1999, dated 2009)", "key": {"[1]": {"test_system": "PBMCs obtained from dogs immunised with peptide vaccines", "assay": "In vitro T cell proliferation assay without enrichment, PBMCs of peptide-vaccinated dogs against Th-epitope and truncated versions", "assay_type": "cell-based, dog", "conditions": "dogs of Example 2 immunised with the respective Th-epitope-LHRH; FIGS. 2-4", "description": "The assay was carried out without the enrichment of PBMCs. PBMCs obtained from Ficoll gradient purification were directly tested against the respective Th-epitope and its truncated versions. […] Truncated versions of the respective Th-epitopes were also tested to more closely define the T-cell activity within the sequences. […] This implies that the T-cell activity is towards the N-terminus or middle of the 17-residue peptide."}, "[2]": {"test_system": "PBMCs from dogs immunised with CDV", "assay": "T-cell proliferation after in vitro stimulation of PBMC with peptide pools, tested with autologous APCs and single peptides", "assay_type": "cell-based, dog", "description": "An alternate strategy was used to increase the precursor frequency of specific T cells recognising the CDV peptides. Fresh PBMCs obtained from these hyperimmunised dogs were subjected to stimulation in vitro with pools of all 94 peptides for 30 minutes at 37° C. The cells were then washed to remove any excess peptides and cultured for 7 days. This population of T cells was then tested with autologous APCs with every single peptide as the antigen.\nTo confirm this observation, the same four dogs were bled again, five weeks after receiving the dose of killed virus. The PBMCs were stimulated in vitro with pools of either all 94 peptides or peptides 21-40 (because most of the activity was in this region) and after 7 days of culture the stimulated T cells were tested against individual peptides. Significant stimulatory indices were obtained with all peptides, confirming the above results. Four more dogs which received only one dose of 3 in 1 vaccine were tested using the in vitro stimulation method and all four dogs responded to the majority of peptides shown in Table 2.\nOnce again the same peptides and one additional peptide P32 were tested on cells from additional dogs."}, "LHRH [3]": {"test_system": "LHRH", "assay": "Trial K9-8: antibody response to LHRH by ELISA", "assay_type": "in vivo, dog", "conditions": "Trial K9-8; T-cell-LHRH constructs named by their T-cell epitope", "description": "A total of 35 dogs mixed sex were used in this trial. All had been previously vaccinated with a live CDV vaccine but had not been vaccinated against LHRH.\nThe T-Helper epitopes were linked to a truncated form of LHRH, containing amino acids 2 to 10 of the native 10 amino acid sequence, as shown below:\nAll vaccines were formulated as for Example 2, ie each 1 mL dose of vaccine contained 40nmoles of peptide, 150 μg Iscomatrix™, and thiomersal as preservative.\nWhere dogs were vaccinated with a pool of peptides, the concentration of each peptide was adjusted to give equal concentrations and a total amount of 40 nmoles of LHRH epitope per 1 mL dose.\nAll dogs were vaccinated with a 1 mL dose, delivered in the scruff of the neck. Vaccinations were given at 0 and 4 weeks and venous blood samples were obtained at intervals during the trial.\nEffective T-cell help was determined by measuring the antibody response to LHRH by ELISA. Biological effectiveness of the peptide based vaccine was determined by measuring the levels of progesterone in female dogs and testosterone in male dogs."}, "LHRH [4]": {"test_system": "LHRH", "assay": "Trial in BALB/c mice: antibody response to LHRH by ELISA", "assay_type": "in vivo", "conditions": "BALB/c mice", "description": "The canine vaccines with CDV-F derived Th-epitopes and LHRH used in Example 3 were also used to immunise BALB/c mice to investigate if the Th-epitopes would be functional in a different animal species.\nAll vaccines were formulated as for Example 3 except that they were diluted further so that 100 μl doses contained 2.7 nmoles of peptide and 10 μg of Iscomatrix™ and thiomersol as preservative.\nMice were vaccinated with 100 μl of the vaccine at the base of tail. Vaccinations were given at 0 and 4 weeks and animals bled at intervals after each vaccination from the retro-orbital plexus. Effective T-cell help was determined by measuring the antibody response to LHRH by ELISA."}}, "data": [{"sequence": "TAAQITAGIALHQSNLN [Peptide P35]", "values": [{"measurement": "Stimulation indices to Th-epitope and its truncated versions", "setting": "[1]", "result": "the other three dogs responded as well to the 12 residue peptide as to the full length 17 residue one"}, {"measurement": "Stimulatory index", "setting": "[2]; Table 1, Beagle Foxhound (Dog #18), hyperimmunised, PBMC stimulated with pool of all 94 peptides, 7 days culture", "result": 3.1}, {"measurement": "Stimulatory index", "setting": "[2]; Table 1, Beagle Foxhound (Dog #19)", "result": 57}, {"measurement": "Stimulatory index", "setting": "[2]; Table 1, Beagle Foxhound (Dog #20)", "result": 3.3}, {"measurement": "Stimulatory index", "setting": "[2]; Table 1, Beagle Foxhound (Dog #21)", "result": 22}, {"measurement": "Stimulatory index", "setting": "[2]; Table 2, Beagle Foxhound (Dog #72), one dose of 3 in 1 vaccine", "result": 1.7}, {"measurement": "Stimulatory index", "setting": "[2]; Table 2, Beagle Foxhound (Dog #73), one dose of 3 in 1 vaccine", "result": 6.8}, {"measurement": "Stimulatory index", "setting": "[2]; Table 3, Kelpie Foxhound (Dog #125)", "result": 3.8}, {"measurement": "Stimulatory index", "setting": "[2]; Table 3, Kelpie Foxhound (Dog #126)", "result": 10}, {"measurement": "Stimulatory index", "setting": "[2]; Table 5, Border Collie", "result": 2}, {"measurement": "Stimulatory index", "setting": "[2]; Table 5, Fox Terrier", "result": 2.2}, {"measurement": "Stimulatory index", "setting": "[2]; Table 5, Grey hound", "result": "<2"}, {"measurement": "Stimulatory index", "setting": "[2]; Table 5, Kelpie Pointer", "result": 2}, {"measurement": "Stimulatory index", "setting": "[2]; Table 5, Poodle Shitzu", "result": "<2"}, {"measurement": "Stimulatory index", "setting": "[2]; Table 5, Terrier Cross", "result": "<2"}, {"measurement": "antibody responses to LHRH", "setting": "LHRH [3]", "result": "Strong antibody responses"}, {"measurement": "antibody titres to LHRH", "setting": "LHRH [4]", "result": "low antibody titres"}]}]}
